Source: patent publication US12139520B2 (priority 2020, dated 2024)
Numbered stars: 1 amine (or outer) side, 2 acyl side, 3 side chain; on linkers, the order of the positions; unused ones are H or OH. Bridge positions count the residues as written; N and C are the ends. Square brackets hold non-standard residues; d marks the D form. Side chains are listed from the residue outwards. Peptide text beside a SMILES is read from it. * marks the point of attachment. C20 diacid = O=C(O)CCCCCCCCCCCCCCCCCCC(=O)*; γGlu = O=C(O)[C@H](CCC(=O)[*:2])N[*:1]; Hyp = O=C(O)[C@@H]1C[C@@H](O)CN1; Cit = NC(=O)NCCC[C@H](N)C(=O)O; AEEA = NCCOCCOCC(=O)O

Tests used:
hAMY3 receptor = molecular target: T1, hAMY3 receptor (Homo sapiens, UniProt O60896+P30988); experiment: cAMP assay for in vitro receptor activation, hAMY3-R; assay type: cell-based; settings: cAMP assay, hAMY3 receptor; read-out: hAMY3R EC50
T1 sequence (P30988 25-474): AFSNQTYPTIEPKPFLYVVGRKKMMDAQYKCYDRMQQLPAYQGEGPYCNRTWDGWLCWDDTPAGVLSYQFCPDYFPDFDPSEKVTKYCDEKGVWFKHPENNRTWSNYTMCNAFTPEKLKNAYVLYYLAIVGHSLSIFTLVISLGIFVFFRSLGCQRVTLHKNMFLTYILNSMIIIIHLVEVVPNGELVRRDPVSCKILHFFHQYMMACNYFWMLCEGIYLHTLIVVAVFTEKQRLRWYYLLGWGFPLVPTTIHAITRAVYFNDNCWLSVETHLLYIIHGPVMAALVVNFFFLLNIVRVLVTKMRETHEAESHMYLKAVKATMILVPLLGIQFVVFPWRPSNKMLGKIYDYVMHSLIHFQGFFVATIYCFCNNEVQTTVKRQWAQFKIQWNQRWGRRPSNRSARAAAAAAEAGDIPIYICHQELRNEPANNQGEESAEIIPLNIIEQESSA
T1 sequence (O60896 24-148 partner): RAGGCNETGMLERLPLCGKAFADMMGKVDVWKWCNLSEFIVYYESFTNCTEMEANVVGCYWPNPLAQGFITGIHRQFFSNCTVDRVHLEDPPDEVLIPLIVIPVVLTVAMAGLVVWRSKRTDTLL
How it was run: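 Stable hAMY3 cells; DPBS + 0.05% casein + 0.5 mM IBMX; graded compound doses, 30 min, RT; cAMP via HTRF Gs kit, TR-FRET read at 1 h.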

hAM1 receptor = hAM1 receptor (Homo sapiens, UniProt O60895+Q16602); experiment: cAMP assay for in vitro receptor activation, hAM1-R; assay type: cell-based; settings: cAMP assay, hAM1 receptor; read-out: hAM1R EC50
Sequence of hAM1 receptor (Q16602 23-461): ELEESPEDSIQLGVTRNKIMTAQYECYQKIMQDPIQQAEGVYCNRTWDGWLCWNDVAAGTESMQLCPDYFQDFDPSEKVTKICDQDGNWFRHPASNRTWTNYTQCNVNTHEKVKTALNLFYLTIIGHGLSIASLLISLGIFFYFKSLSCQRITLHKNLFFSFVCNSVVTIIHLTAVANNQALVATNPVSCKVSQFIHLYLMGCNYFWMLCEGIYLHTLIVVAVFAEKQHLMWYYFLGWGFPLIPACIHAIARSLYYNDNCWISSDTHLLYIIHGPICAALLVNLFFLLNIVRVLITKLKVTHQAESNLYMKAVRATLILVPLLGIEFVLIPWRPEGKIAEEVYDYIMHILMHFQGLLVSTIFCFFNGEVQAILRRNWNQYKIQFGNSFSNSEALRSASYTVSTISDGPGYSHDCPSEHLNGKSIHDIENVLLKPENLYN
Sequence of hAM1 receptor (O60895 43-175 partner): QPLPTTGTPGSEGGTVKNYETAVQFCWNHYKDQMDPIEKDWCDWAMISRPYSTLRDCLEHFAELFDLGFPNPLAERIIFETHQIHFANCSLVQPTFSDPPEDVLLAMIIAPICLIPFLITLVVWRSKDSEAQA
How it was run: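 A subcloned monoclonal line stably expressing hAM1 receptor is thawed and plated at 8000 cells/well. The assay buffer is DPBS with 0.05% casein and 0.5 mM IBMX, and receptor activation is followed by cAMP levels.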

Row | Structure (SMILES) | EC50 (hAMY3 receptor) [nM] | EC50 (hAM1 receptor) [nM]
1 | CC[C@H](C)[C@H](NC(=O)[C@H](CCC(N)=O)NC(=O)[C@H](CCC(=O)O)NC(=O)[C@H](C)NC(=O)[C@H](CC(C)C)NC(=O)[C@H](CCCNC(N)=O)NC(=O)[C@H](C)NC(=O)[C@@H](NC(=O)[C@@H](NC(=O)[C@@H]1CSSC[C@H](NC(=O)[C@@H](N)CCCNC(=N)N)C(=O)N[C@@H](CCC(N)=O)C(=O)N[C@@H](C)C(=O)N[C@@H](CO)C(=O)N[C@@H]([C@@H](C)O)C(=O)N1)[C@@H](C)O)C(C)C)C(=O)N[C@@H](C)C(=O)N[C@@H](CCC(N)=O)C(=O)N[C@@H](Cc1ccc(O)cc1)C(=O)N[C@H](C(=O)N[C@@H](CC(=O)O)C(=O)N[C@@H](CCCCN)C(=O)N[C@@H](CC(=O)O)C(=O)N[C@@H](CCCCN)C(=O)N[C@@H](CC(=O)O)C(=O)N[C@@H](CCC(N)=O)C(=O)N[C@H](C(=O)N[C@@H](C)C(=O)N1CCC[C@H]1C(=O)N1CCC[C@H]1C(=O)N[C@H](C(=O)N[C@@H](CCC(=O)O)C(=O)N[C@H](C(=O)NCC(=O)N1CCC[C@H]1C(=O)N[C@@H](CC(N)=O)C(=O)N[C@@H](CO)C(=O)N1C[C@H](O)C[C@H]1C(N)=O)C(C)C)[C@@H](C)O)C(C)C)[C@@H](C)O [compound 33] (H-RCQASTCTVA[Cit]LAEQIAQYTDKDKDQVAPPTEVGPNS[Hyp]-NH2; disulfide 2-7; N-terminus assumed) | 0.008 | > 5000
2 | CC[C@H](C)[C@H](NC(=O)[C@H](CCC(N)=O)NC(=O)[C@H](CCC(=O)O)NC(=O)[C@H](C)NC(=O)[C@H](CC(C)C)NC(=O)[C@H](CCCNC(=N)N)NC(=O)[C@H](CCC(N)=O)NC(=O)[C@@H](NC(=O)[C@@H](NC(=O)[C@@H]1CSSC[C@H](NC(=O)[C@@H](N)CCCCN)C(=O)N[C@@H](CC(N)=O)C(=O)N[C@@H]([C@@H](C)O)C(=O)N[C@@H](C)C(=O)N[C@@H]([C@@H](C)O)C(=O)N1)[C@@H](C)O)C(C)C)C(=O)N[C@@H](Cc1ccc(O)cc1)C(=O)N[C@@H](CCC(N)=O)C(=O)N[C@@H](Cc1ccccc1)C(=O)N[C@H](C(=O)N[C@@H](CC(=O)O)C(=O)N[C@@H](CCCCN)C(=O)N[C@@H](CC(=O)O)C(=O)N[C@@H](CCCCN)C(=O)N[C@@H](CC(=O)O)C(=O)N[C@@H](CC(N)=O)C(=O)N[C@@H](CCCCNC(=O)COCCOCCNC(=O)COCCOCCNC(=O)CC[C@H](NC(=O)CCCCCCCCCCCCCCCCCCC(=O)O)C(=O)O)C(=O)N[C@@H](C)C(=O)N1CCC[C@H]1C(=O)N1CCC[C@H]1C(=O)N[C@H](C(=O)N[C@@H](CC(N)=O)C(=O)N[C@H](C(=O)NCC(=O)N[C@@H](CO)C(=O)N[C@@H](CC(N)=O)C(=O)NCC(=O)N1C[C@H](O)C[C@H]1C(N)=O)C(C)C)[C@@H](C)O)[C@@H](C)O [compound 12] (H-KCNTATCTVQRLAEQIYQFTDKDKDNK([AEEA-AEEA-γGlu-C20 diacid])APPTNVGSNG[Hyp]-NH2; disulfide 2-7; N-terminus assumed) | 0.007 | > 5000
3 | CC[C@H](C)[C@H](NC(=O)[C@H](CCC(N)=O)NC(=O)[C@H](CCC(=O)O)NC(=O)[C@H](C)NC(=O)[C@H](CC(C)C)NC(=O)[C@H](CCCNC(=N)N)NC(=O)[C@H](CCC(N)=O)NC(=O)[C@@H](NC(=O)[C@@H](NC(=O)[C@@H]1CSSC[C@H](NC(=O)[C@@H](N)CCCCN)C(=O)N[C@@H](CC(N)=O)C(=O)N[C@@H]([C@@H](C)O)C(=O)N[C@@H](C)C(=O)N[C@@H]([C@@H](C)O)C(=O)N1)[C@@H](C)O)C(C)C)C(=O)N[C@@H](Cc1ccc(O)cc1)C(=O)N[C@@H](CCC(N)=O)C(=O)N[C@@H](Cc1ccccc1)C(=O)N[C@H](C(=O)N[C@@H](CC(=O)O)C(=O)N[C@@H](CCCCN)C(=O)N[C@@H](CC(=O)O)C(=O)N[C@@H](CCCCN)C(=O)N[C@@H](CCCCNC(=O)COCCOCCNC(=O)COCCOCCNC(=O)CC[C@H](NC(=O)CCCCCCCCCCCCCCCCCCC(=O)O)C(=O)O)C(=O)N[C@@H](CC(N)=O)C(=O)N[C@H](C(=O)N[C@@H](C)C(=O)N1CCC[C@H]1C(=O)N1CCC[C@H]1C(=O)N[C@H](C(=O)N[C@@H](CC(N)=O)C(=O)N[C@H](C(=O)NCC(=O)N[C@@H](CO)C(=O)N[C@@H](CC(N)=O)C(=O)NCC(=O)N1C[C@H](O)C[C@H]1C(N)=O)C(C)C)[C@@H](C)O)C(C)C)[C@@H](C)O [compound 40] (H-KCNTATCTVQRLAEQIYQFTDKDKK([AEEA-AEEA-γGlu-C20 diacid])NVAPPTNVGSNG[Hyp]-NH2; disulfide 2-7; N-terminus assumed) | 0.01 | > 5000

Now from value to compound:

Row | EC50 (hAMY3 receptor) [nM] | EC50 (hAM1 receptor) [nM] | Structure (SMILES)
4 | 0.015 | > 5000 | CC[C@H](C)[C@H](NC(=O)[C@H](CCC(N)=O)NC(=O)[C@H](Cc1c[nH]cn1)NC(=O)[C@H](C)NC(=O)[C@H](CC(C)C)NC(=O)[C@H](CCCNC(=N)N)NC(=O)[C@H](CCC(N)=O)NC(=O)[C@@H](NC(=O)[C@@H](NC(=O)[C@@H]1CSSC[C@H](NC(=O)[C@H](CCCCN)NC(=O)CC[C@H](NC(=O)CCCCCCCCCCCCCCCCCCC(=O)O)C(=O)O)C(=O)N[C@@H](CC(N)=O)C(=O)N[C@@H]([C@@H](C)O)C(=O)N[C@@H](C)C(=O)N[C@@H]([C@@H](C)O)C(=O)N1)[C@@H](C)O)C(C)C)C(=O)N[C@@H](C)C(=O)N[C@@H](CCC(N)=O)C(=O)N[C@@H](Cc1ccccc1)C(=O)N[C@H](C(=O)N[C@@H](CC(=O)O)C(=O)N[C@@H](CCCCN)C(=O)N[C@@H](CC(N)=O)C(=O)N[C@@H](CCCCN)C(=O)N[C@@H](CC(=O)O)C(=O)N[C@@H](CC(N)=O)C(=O)N[C@H](C(=O)N[C@@H](C)C(=O)N1CCC[C@H]1C(=O)N1CCC[C@H]1C(=O)N[C@H](C(=O)N[C@@H](CC(N)=O)C(=O)N[C@H](C(=O)NCC(=O)N[C@@H](CO)C(=O)N[C@@H](CC(N)=O)C(=O)NCC(=O)N1C[C@H](O)C[C@H]1C(N)=O)C(C)C)[C@@H](C)O)C(C)C)[C@@H](C)O [compound 87] ({C20 diacid-γGlu}-KCNTATCTVQRLAHQIAQFTDKNKDNVAPPTNVGSNG[Hyp]-NH2; disulfide 2-7)
5 | 0.018 | > 5000 | CC[C@H](C)[C@H](NC(=O)[C@H](CCC(N)=O)NC(=O)[C@H](Cc1c[nH]cn1)NC(=O)[C@H](C)NC(=O)[C@H](CC(C)C)NC(=O)[C@H](CCCNC(=N)N)NC(=O)[C@H](CCC(N)=O)NC(=O)[C@@H](NC(=O)[C@@H](NC(=O)[C@@H]1CSSC[C@H](NC(=O)[C@H](CCCCN)NC(=O)CC[C@H](NC(=O)CCCCCCCCCCCCCCCCCCC(=O)O)C(=O)O)C(=O)N[C@@H](CC(N)=O)C(=O)N[C@@H]([C@@H](C)O)C(=O)N[C@@H](C)C(=O)N[C@@H]([C@@H](C)O)C(=O)N1)[C@@H](C)O)C(C)C)C(=O)N[C@@H](Cc1ccc(O)cc1)C(=O)N[C@@H](CCC(N)=O)C(=O)N[C@@H](Cc1ccccc1)C(=O)N[C@@H](Cc1ccc(O)cc1)C(=O)N[C@@H](CC(=O)O)C(=O)N[C@@H](CCCCN)C(=O)N[C@@H](CC(=O)O)C(=O)N[C@@H](CCCCN)C(=O)N[C@@H](CC(=O)O)C(=O)N[C@@H](CC(N)=O)C(=O)N[C@H](C(=O)N[C@@H](C)C(=O)N1CCC[C@H]1C(=O)N1CCC[C@H]1C(=O)N[C@H](C(=O)N[C@@H](CC(N)=O)C(=O)N[C@H](C(=O)NCC(=O)N[C@@H](CO)C(=O)N[C@@H](CC(N)=O)C(=O)NCC(=O)N1C[C@H](O)C[C@H]1C(N)=O)C(C)C)[C@@H](C)O)C(C)C [compound 104] ({C20 diacid-γGlu}-KCNTATCTVQRLAHQIYQFYDKDKDNVAPPTNVGSNG[Hyp]-NH2; disulfide 2-7)
6 | 0.018 | > 5000 | CC[C@H](C)[C@H](NC(=O)[C@H](CCC(N)=O)NC(=O)[C@H](Cc1c[nH]cn1)NC(=O)[C@H](C)NC(=O)[C@H](CC(C)C)NC(=O)[C@H](CCCNC(=N)N)NC(=O)[C@@H](NC(=O)[C@@H](NC(=O)[C@@H](NC(=O)[C@@H]1CSSC[C@H](NC(=O)[C@H](CCCCN)NC(=O)CC[C@H](NC(=O)CCCCCCCCCCCCCCCCCCC(=O)O)C(=O)O)C(=O)N[C@@H](CC(N)=O)C(=O)N[C@@H]([C@@H](C)O)C(=O)N[C@@H](C)C(=O)N[C@@H]([C@@H](C)O)C(=O)N1)[C@@H](C)O)C(C)C)C(C)C)C(=O)N[C@@H](Cc1ccc(O)cc1)C(=O)N[C@@H](CCC(N)=O)C(=O)N[C@@H](Cc1ccccc1)C(=O)N[C@H](C(=O)N[C@@H](CC(=O)O)C(=O)N[C@@H](CCCCN)C(=O)N[C@@H](CC(=O)O)C(=O)N[C@@H](CCCCN)C(=O)N[C@@H](CC(=O)O)C(=O)N[C@@H](CC(N)=O)C(=O)N[C@H](C(=O)N[C@@H](C)C(=O)N1CCC[C@H]1C(=O)N1CCC[C@H]1C(=O)N[C@H](C(=O)N[C@@H](CC(N)=O)C(=O)N[C@H](C(=O)NCC(=O)N[C@@H](CO)C(=O)N[C@@H](CC(N)=O)C(=O)NCC(=O)N1C[C@H](O)C[C@H]1C(N)=O)C(C)C)[C@@H](C)O)C(C)C)[C@@H](C)O [compound 103] ({C20 diacid-γGlu}-KCNTATCTVVRLAHQIYQFTDKDKDNVAPPTNVGSNG[Hyp]-NH2; disulfide 2-7)
